Laboratory results reported in patent US20110269790A1, “NOVEL THIENOPYRIDINES AS PHARMACOLOGICALLY ACTIVE AGENTS” (priority 2009, published 2011).
Converted amounts (≈) assume the structure as drawn.

Legend:
Wistar rats = assay: Carrageenan induced paw edema model; format: in vivo, rat; settings: for change in vivo at 100 mg/kg / inhibition in vivo at 100 mg/kg: Rattus norvegicus; for change in vivo at 100 mg/kg: read-out: % Increase in Paw Volume; for inhibition in vivo at 100 mg/kg: read-out: % Inhibition (paw volume)
Description: Male Albino Wistar rats of 150-180 grams were used for the experiments.
Anti-inflammatory activity of test compounds was evaluated in Wistar rats employing the method of Winter et al (1963) and Diwan et al (1989). Male Wistar rats were used for the study. […] The different test compounds were administered to the animals in the test group at the dose of 100 mg/kg, by oral route. Animals in the standard group received Indomethacin at the dose of 10 mg/kg, by oral route. All test and standard compounds were administered as 1% gum acacia suspension. Rats in the control group received the vehicle solution without drugs. One hour after test drugs administration, rats in all the groups were challenged with 0.1 ml of 1% Carrageenan in the sub plantar region of right hind paw. A zero hour paw volume was measured for all the rats using digital plethysmometer (Ugo Basile, Italy) before the administration of carrageenan for all groups. Paw volumes were again measured 3 hrs after the challenge of Carrageenan. The percent inhibition of paw volume for each rat in treated groups was calculated by comparing with mean paw volume of control group and expressed as mean (±SE) percent inhibition of paw volume for each test. In a preliminary study the compounds that have shown good activity were evaluated for dose response study by using above procedure.

[1] = system: crude intestinal α-glucosidase; assay: In-vitro mammalian (rat intestinal) α-glucosidase inhibition assay; format: biochemical; settings: for Mammalian α Glucosidase Inhibition (Mean ± S.E): highest concentration 5 mg/ml; for IC50: mammalian α-glucosidase, dose response study
Source text: (§1) Chemicals: α-Glucosidase [(EC 3.2.1.20) Type I: from bakers yeast], rat intestinal acetone powder (as a source of crude intestinal α-glucosidase), α-amylase [EC 3.2.1.1) Type VI B: from porcine pancreas], p-nitrophenyl α-D-glucopyranoside, 3,5-dinitro salicylic acid, soluble potato starch and 1-deoxyrojirimycine, were purchased from Sigma Chemical Co., St Louis, Mo., USA. Other chemicals of analytical grade were procured from indigenous manufacturers.
In-vitro a-Glucosidase Inhibition Assay: Yeast and intestinal a-glucosidase inhibitory activities were determined as per reported methods (Babu et al., 2004; Mc Dougall et al., 2005). Rat intestinal acetone powder in normal saline (100% w/v) was sonicated properly and the supernatant was used as a source of crude intestinal a-glucosidase after centrifugation. In brief, 20 μl, of test samples (100 mg/ml DMSO solution) were reconstituted in 100 μl of 100 mM-Phosphate buffer (pH 6.8) in a 96-well microplate and incubated with 50 μl yeast a-glucosidase (0.76 μ/ml in same buffer) or crude intestinal a-glucosidase for 5 min before 50-μl substrate (5 mM, […] prepared in same buffer) was added. Release of p-nitrophenyol was measured at 405 nm spectrophotometrically (Spectra Mas Plus 384, Molecular Device corporation, Sunnyvale, Calif., USA) 5 min after incubation with substrate, individual blank for test samples were prepared to correct background absorbance where the substrate was replaced with 50 μl of buffer. The control sample contained 20 μl DMSO in place of test samples. The percentage of enzyme inhibition was calculated as (A−B/A)×100 where A is represents the absorbance of the control without test samples, and B represents the absorbance in the presence of test samples. […] The IC50 values were calculated by applying logarithmic regression analysis from the mean inhibitory values.

[2] = target: T1, porcine pancreatic α-amylase (Sus scrofa, UniProt P00690); assay: α-Amylase inhibition assay; format: biochemical; settings: for Maltose released: a/b marks the respective control (Control-1 2.147, Control-2 3.429); for inhibition at 10000 µg/mL (stock): 0.05 h
T1 construct: α-amylase [EC 3.2.1.1) Type VI B: from porcine pancreas]; purchased Sigma Chemical Co., St Louis, Mo., USA; host or cells: porcine pancreas (natural source)
T1 sequence (P00690 16-511): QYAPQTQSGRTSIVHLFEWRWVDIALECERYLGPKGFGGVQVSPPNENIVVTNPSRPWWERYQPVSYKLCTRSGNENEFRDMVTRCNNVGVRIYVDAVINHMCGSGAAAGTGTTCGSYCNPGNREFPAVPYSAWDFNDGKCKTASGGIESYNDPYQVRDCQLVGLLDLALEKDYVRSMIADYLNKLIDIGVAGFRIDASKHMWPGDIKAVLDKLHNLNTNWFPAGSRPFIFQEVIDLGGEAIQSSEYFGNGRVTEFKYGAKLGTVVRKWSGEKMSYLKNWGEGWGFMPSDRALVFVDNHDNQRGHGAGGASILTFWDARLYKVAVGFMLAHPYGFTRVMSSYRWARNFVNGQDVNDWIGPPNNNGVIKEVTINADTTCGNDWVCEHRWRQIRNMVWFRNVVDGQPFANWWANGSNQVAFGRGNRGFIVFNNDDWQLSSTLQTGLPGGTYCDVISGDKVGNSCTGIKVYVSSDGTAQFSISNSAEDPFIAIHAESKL
Source text: as §1
a-Amylase Inhibition Assay: The assay method was adopted from Ali et al. (2006) and modified accordingly to suite microplate reading. In brief, 40 μL of test samples (10 mg/mL DMSO) were reconstituted in 160 μL of 20 mM phosphate buffer (pH 6.9) containing 6.7 mM sodium chloride in 2 mL Eppendorf tubes and incubated with 200 μL of porcine pancreatic α-amylase) (4 U/mL prepared in ice cold distilled water) for 5 min. The reaction was started by the addition of 400-μL soluble potato starch solution (0.5% w/v in 20 mM phosphate buffer, pH 6.9). Exactly 3 min after incubation, 400 μL DNS color reagent (1.0 g of 3,5-dinitrosalicylic acid, 30 g of sodium potassium tartrate and 20 mL of 2 N NaOH to a final volume of 100 mL in distilled water) was added. Closed tubes were placed in a water bath (85-90° C.) for 10 min to develop color and cooled thereafter. 50 μL of reaction mixtures was diluted with 175 μL of distilled water in a 96-well microplate. α-Amylase activity was determined by measuring the absorbance of the mixture at 540 nm spectrophotometrically as above. Individual blanks were prepared to correct for the background absorbance due to test samples. In this case DNS solution was added in tubes before addition of substrate. The percentage inhibition of enzyme activity was calculated as above. All the tests were run in duplicate in this assay.

[3] = test compounds 100 mg/kg oral, Indomethacin 10 mg/kg oral, 3 hrs after Carrageenan
[4] = 10 mg per ml, calculated from maltose released vs respective control
[5] = 50 mg/kg oral, dose response study, n=6
[6] = 100 mg/kg oral, dose response study, n=6
[7] = 200 mg/kg oral, dose response study, n=6

Row | Mammalian α-glucosidase inhibitory activity (in words) [1] | inhibition at 10000 µg/mL (stock) [2, 4] [%] | Structure (SMILES) | change in vivo at 100 mg/kg (Wistar rats; [3]) [%] | inhibition in vivo at 100 mg/kg (Wistar rats; [3]) [%] | Mammalian α-glucosidase inhibition (Mean ± S.E) ([1]; 0.039063 mg/ml) [%] | Mammalian α-glucosidase inhibition (Mean ± S.E) ([1]; 0.078125 mg/ml) [%] | Mammalian α-glucosidase inhibition (Mean ± S.E) ([1]; 0.15625 mg/ml) [%] | Mammalian α-glucosidase inhibition (Mean ± S.E) ([1]; 0.3125 mg/ml) [%] | Mammalian α-glucosidase inhibition (Mean ± S.E) ([1]; 0.625 mg/ml) [%] | Mammalian α-glucosidase inhibition (Mean ± S.E) ([1]; 1.25 mg/ml) [%] | Mammalian α-glucosidase inhibition (Mean ± S.E) ([1]; 2.5 mg/ml) [%] | Mammalian α-glucosidase inhibition (Mean ± S.E) ([1]; 5 mg/ml) [%] | Mammalian α Glucosidase Inhibition (Mean ± S.E) [1] [%] | IC50 [1] [µg/mL] | Alpha amylase inhibitory activity (in words) ([2]; 10 mg per ml) | Maltose released ([2]; 10 mg per ml) [mg/mL] | further results
1 | significant inhibitory activity | 46.7 | CC1CCc2c(nc3sc4c(c3c2N)CCC4)C1 (stereo not shown) [BN-15, 7-Methyl-2,3,6,7,8,9-hexahydro-1H-cyclopenta[4,5]thieno[2,3-b]quinolin-10-amine] | 86.5 ± 17.1 | 23.5 ± 8.98 | 11.85 ± 3.45 | 31.57 ± 2.74 | 40.72 ± 2.26 | 52.37 ± 1.64 | 61.83 ± 0.26 | 78.49 ± 1.88 | 83.34 ± 3.13 | 88.87 ± 1.35 | 88.87 | 299 (≈ 1160 µM) | strong inhibitory activity | 1.179 | 
2 | moderate inhibitory activity | -16.2 | Nc1c2c(nc3sc4c(c13)CCCCC4)CCC2 [BN-18, 1,2,3,6,7,8,9,10-Octahydrocyclohepta[4,5] thieno[2,3-b]cyclopenta [e]pyridin-11-amine] | 62.8 ± 2 | 17.4 ± 0.27 |  |  |  |  |  |  |  |  | 46.22 ± 4.15 |  |  | 3.972 | Maltose release ([2]; end of the reaction, vs control maltose release): more than control

Row | Structure (SMILES) | Mammalian α-glucosidase inhibitory activity (in words) [1] | inhibition at 10000 µg/mL (stock) [2, 4] [%] | change in vivo at 100 mg/kg (Wistar rats; [3]) [%] | inhibition in vivo at 100 mg/kg (Wistar rats; [3]) [%] | Mammalian α-glucosidase inhibition (Mean ± S.E) ([1]; 0.039063 mg/ml) [%] | Mammalian α-glucosidase inhibition (Mean ± S.E) ([1]; 0.078125 mg/ml) [%] | Mammalian α-glucosidase inhibition (Mean ± S.E) ([1]; 0.15625 mg/ml) [%] | Mammalian α-glucosidase inhibition (Mean ± S.E) ([1]; 0.3125 mg/ml) [%] | Mammalian α-glucosidase inhibition (Mean ± S.E) ([1]; 0.625 mg/ml) [%] | Mammalian α-glucosidase inhibition (Mean ± S.E) ([1]; 1.25 mg/ml) [%] | Mammalian α-glucosidase inhibition (Mean ± S.E) ([1]; 2.5 mg/ml) [%] | Mammalian α-glucosidase inhibition (Mean ± S.E) ([1]; 5 mg/ml) [%] | Mammalian α Glucosidase Inhibition (Mean ± S.E) [1] [%] | IC50 [1] [µg/mL] | Alpha amylase inhibitory activity (in words) ([2]; 10 mg per ml) | Maltose released ([2]; 10 mg per ml) [mg/mL] | further results
3 | Nc1c2c(nc3sc4c(c13)CCC4)CCCCC2 [BN-16, 1,2,3,6,7,8,9,10-Octahydrocyclohepta[b]cyclopenta[4,5]thieno[3,2-e]pyridine-11-amine] |  | 31.5 | 61.1 ± 19.2 | 44.9 ± 5.86 |  |  |  |  |  |  |  |  | 4.46 ± 1.77 |  | mild inhibition | 1.492 | % Inhibition (Wistar rats; [5]): 20.47 ± 1.61%; Percentage Swelling (50 mg/kg) (Wistar rats; [5]): 73.18 ± 2.41 %; % Inhibition (Wistar rats; [6]): 44.90 ± 5.86%; Percentage Swelling (100 mg/kg) (Wistar rats; [6]): 61.09 ± 5.86 %; % Inhibition (Wistar rats; [7]): 56.0 ± 2.87%; Percentage Swelling (200 mg/kg) (Wistar rats; [7]): 45.60 ± 5.30 %; % Inhibition (Wistar rats; 200 mg/kg oral, dose response study, n=6, listed as B-16): 57.53%
4 | Nc1c2c(nc3sc4c(c13)CCC4)CCCCCC2 [BN-17, 2,3,6,7,8,9,10,11-Octahydro-1H-cycloocta [b]cyclopenta[4,5]thieno[3,2-e]pyridin-12-amine] | significant inhibitory activity |  |  |  | 10.04 ± 4.42 | 26.77 ± 1.83 | 34.53 ± 2.61 | 44.41 ± 1.52 | 52.44 ± 1.56 | 66.57 ± 1.11 | 70.69 ± 2.75 | 75.39 ± 13.76 | 75.39 | 528 (≈ 1940 µM) | strong inhibitory activity | 1.028 | % Increase in Paw Volume (Wistar rats; [3]): 76.85 ± 6.45%; % Inhibition (paw volume) (Wistar rats; [3]): 6.87 ± 4.76%; % Inhibition [2, 4]: 53.92%
